Results: patent US11957696B2 (Propella Therapeutics, Inc., priority 2021, dated 2024)

How the values were obtained:
[1] = PK of single IM abiraterone decanoate in chemically castrated monkeys (abiraterone plasma); assay type: in vivo, cynomolgus monkeys; conditions: single IM 10 mg/kg
[2] = tested on: CYP17 hydroxylase/lyase; assay: Steroid hormone analysis (serum) in 13-week study; assay type: in vivo, cynomolgus monkeys; conditions: for Serum 17OH-Progesterone CFB (vs Day −1) / Serum 17OH-Progesterone Mean / Serum Aldosterone CFB (vs Day −1) / Serum Aldosterone Mean / Serum Androstenedione CFB (vs Day −1) / Serum Androstenedione Mean / Serum Corticosterone CFB (vs Day −1) / Serum Corticosterone Mean / Serum Cortisol CFB (vs Day −1) / Serum Cortisol Mean / Serum Dehydroepiandrosterone CFB (vs Day −1) / Serum Dehydroepiandrosterone Mean / Serum Deoxycortisol CFB (vs Day −1) / Serum Deoxycortisol Mean / Serum Dihydrotestosterone CFB (vs Day −1) / Serum Dihydrotestosterone Mean / Serum Progesterone CFB (vs Day −1) / Serum Progesterone Mean / Serum Testosterone CFB (vs Day −1) / Serum Testosterone Mean: intact male monkeys
Procedure: Sample Collection for Steroid Hormone Analysis (Serum): Blood samples (approximately 2.5 mL) were collected from all animals via the femoral vein for the steroid hormone analysis. The animals were fasted prior to blood collection.

[3] = 20 mg/kg IM every two weeks, Day 15
[4] = 20 mg/kg IM every two weeks, Day 85
[5] = 60 mg/kg IM every two weeks, Day 15
[6] = 60 mg/kg IM every two weeks, Day 85
[7] = 200 mg/kg IM every two weeks, Day 15
[8] = 200 mg/kg IM every two weeks, Day 85
[9] = Day 85, 20 and 60 mg/kg dose groups

## CCCCCCCCCC(=O)O[C@H]1CC[C@@]2(C)C(=CC[C@@H]3[C@@H]2CC[C@]2(C)C(c4cccnc4)=CC[C@@H]32)C1 [Abiraterone Decanoate, abiraterone decanoate]
[1]
  abiraterone in the plasma at Day 70: measurable
[2]; [3]
  Serum 17OH-Progesterone CFB (vs Day −1): 1060%
  Serum 17OH-Progesterone Mean: 4289 pg/mL
  Serum Aldosterone CFB (vs Day −1): −68%
  Serum Aldosterone Mean: 45 pg/mL
  Serum Androstenedione CFB (vs Day −1): −82%
  Serum Androstenedione Mean: 39 pg/mL
  Serum Corticosterone CFB (vs Day −1): 3361%
  Serum Corticosterone Mean: 110635 pg/mL
  Serum Cortisol CFB (vs Day −1): −76%
  Serum Cortisol Mean: 34897 pg/mL
  Serum Dehydroepiandrosterone CFB (vs Day −1): −73%
  Serum Dehydroepiandrosterone Mean: 1500 pg/mL
  Serum Deoxycortisol CFB (vs Day −1): −64%
  Serum Deoxycortisol Mean: 241 pg/mL
  Serum Dihydrotestosterone CFB (vs Day −1): −87%
  Serum Dihydrotestosterone Mean: 195 pg/mL
  Serum Progesterone CFB (vs Day −1): 51539%
  Serum Progesterone Mean: 10328 pg/mL
  Serum Testosterone CFB (vs Day −1): −65%
  Serum Testosterone Mean: 2148 pg/mL
[2]; 20 mg/kg IM every two weeks, Day 15, listed as AbiDec
  Serum Testosterone CFB (vs Day −1): −87%
[2]; [4]
  Serum 17OH-Progesterone CFB (vs Day −1): 1968%
  Serum 17OH-Progesterone Mean: 7647 pg/mL
  Serum Aldosterone CFB (vs Day −1): 40%
  Serum Aldosterone Mean: 199 pg/mL
  Serum Androstenedione CFB (vs Day −1): −53%
  Serum Androstenedione Mean: 106 pg/mL
  Serum Corticosterone CFB (vs Day −1): 2837%
  Serum Corticosterone Mean: 93869 pg/mL
  Serum Cortisol CFB (vs Day −1): −58%
  Serum Cortisol Mean: 62490 pg/mL
  Serum Dehydroepiandrosterone CFB (vs Day −1): −76%
  Serum Dehydroepiandrosterone Mean: 1372 pg/mL
  Serum Deoxycortisol CFB (vs Day −1): −47%
  Serum Deoxycortisol Mean: 357 pg/mL
  Serum Dihydrotestosterone CFB (vs Day −1): −61%
  Serum Dihydrotestosterone Mean: 578 pg/mL
  Serum Progesterone CFB (vs Day −1): 47710%
  Serum Progesterone Mean: 9562 pg/mL
  Serum Testosterone CFB (vs Day −1): 3%
  Serum Testosterone Mean: 6286 pg/mL
[2]; [5]
  Serum 17OH-Progesterone CFB (vs Day −1): 944%
  Serum 17OH-Progesterone Mean: 1631 pg/mL
  Serum Aldosterone CFB (vs Day −1): −94%
  Serum Aldosterone Mean: 14 pg/mL
  Serum Androstenedione CFB (vs Day −1): −94%
  Serum Androstenedione Mean: 20 pg/mL
  Serum Corticosterone CFB (vs Day −1): 5279%
  Serum Corticosterone Mean: 163079 pg/mL
  Serum Cortisol CFB (vs Day −1): −87%
  Serum Cortisol Mean: 18271 pg/mL
  Serum Dehydroepiandrosterone CFB (vs Day −1): −75%
  Serum Dehydroepiandrosterone Mean: 1271 pg/mL
  Serum Deoxycortisol CFB (vs Day −1): −72%
  Serum Deoxycortisol Mean: 93 pg/mL
  Serum Dihydrotestosterone CFB (vs Day −1): −95%
  Serum Dihydrotestosterone Mean: 64 pg/mL
  Serum Progesterone CFB (vs Day −1): 69193%
  Serum Progesterone Mean: 13859 pg/mL
  Serum Testosterone CFB (vs Day −1): −94%
  Serum Testosterone Mean: 335 pg/mL
[2]; 60 mg/kg IM every two weeks, Day 15, listed as AbiDec
  Serum Testosterone CFB (vs Day −1): −95%
[2]; [6]
  Serum 17OH-Progesterone CFB (vs Day −1): 5546%
  Serum 17OH-Progesterone Mean: 8821 pg/mL
  Serum Aldosterone CFB (vs Day −1): −18%
  Serum Aldosterone Mean: 194 pg/mL
  Serum Androstenedione CFB (vs Day −1): −77%
  Serum Androstenedione Mean: 79 pg/mL
  Serum Corticosterone CFB (vs Day −1): 3878%
  Serum Corticosterone Mean: 120598 pg/mL
  Serum Cortisol CFB (vs Day −1): −72%
  Serum Cortisol Mean: 39689 pg/mL
  Serum Dehydroepiandrosterone CFB (vs Day −1): −76%
  Serum Dehydroepiandrosterone Mean: 1200 pg/mL
  Serum Deoxycortisol CFB (vs Day −1): −7%
  Serum Deoxycortisol Mean: 315 pg/mL
  Serum Dihydrotestosterone CFB (vs Day −1): −69%
  Serum Dihydrotestosterone Mean: 361 pg/mL
  Serum Progesterone CFB (vs Day −1): 67947%
  Serum Progesterone Mean: 13609 pg/mL
  Serum Testosterone CFB (vs Day −1): 1%
  Serum Testosterone Mean: 5453 pg/mL
[2]; [7]
  Serum 17OH-Progesterone CFB (vs Day −1): 158%
  Serum 17OH-Progesterone Mean: 474 pg/mL
  Serum Aldosterone CFB (vs Day −1): −91%
  Serum Aldosterone Mean: 19 pg/mL
  Serum Androstenedione CFB (vs Day −1): −93%
  Serum Androstenedione Mean: 20 pg/mL
  Serum Corticosterone CFB (vs Day −1): 4238%
  Serum Corticosterone Mean: 138133 pg/mL
  Serum Cortisol CFB (vs Day −1): −93%
  Serum Cortisol Mean: 7703 pg/mL
  Serum Dehydroepiandrosterone CFB (vs Day −1): −64%
  Serum Dehydroepiandrosterone Mean: 1200 pg/mL
  Serum Deoxycortisol CFB (vs Day −1): −84%
  Serum Deoxycortisol Mean: 44 pg/mL
  Serum Dihydrotestosterone CFB (vs Day −1): −96%
  Serum Dihydrotestosterone Mean: 67 pg/mL
  Serum Progesterone CFB (vs Day −1): 59894%
  Serum Progesterone Mean: 11999 pg/mL
  Serum Testosterone CFB (vs Day −1): −99%
  Serum Testosterone Mean: 100 pg/mL
[2]; 200 mg/kg IM every two weeks, Day 15, listed as AbiDec
  Serum Testosterone CFB (vs Day −1): −96%
[2]; [8]
  Serum 17OH-Progesterone CFB (vs Day −1): 1696%
  Serum 17OH-Progesterone Mean: 3296 pg/mL
  Serum Aldosterone CFB (vs Day −1): −82%
  Serum Aldosterone Mean: 37 pg/mL
  Serum Androstenedione CFB (vs Day −1): −87%
  Serum Androstenedione Mean: 39 pg/mL
  Serum Corticosterone CFB (vs Day −1): 3468%
  Serum Corticosterone Mean: 113629 pg/mL
  Serum Cortisol CFB (vs Day −1): −83%
  Serum Cortisol Mean: 19682 pg/mL
  Serum Dehydroepiandrosterone CFB (vs Day −1): −64%
  Serum Dehydroepiandrosterone Mean: 1200 pg/mL
  Serum Deoxycortisol CFB (vs Day −1): −49%
  Serum Deoxycortisol Mean: 141 pg/mL
  Serum Dihydrotestosterone CFB (vs Day −1): −90%
  Serum Dihydrotestosterone Mean: 165 pg/mL
  Serum Progesterone CFB (vs Day −1): 75799%
  Serum Progesterone Mean: 15180 pg/mL
  Serum Testosterone CFB (vs Day −1): −87%
  Serum Testosterone Mean: 1246 pg/mL
[2]; 200 mg/kg IM every two weeks, Day 85, listed as AbiDec
  Serum Testosterone CFB (vs Day −1): −87%
[2]; 200 mg/kg/dose, for at least 85 days
  serum testosterone levels reduced: more than 75%
[2]; [9]
  Androstenedione serum concentration below Day −1: 53-77%
  dihydrotestosterone serum concentration below Day −1: 61-69%
[2]; gonadally intact male monkeys, appeared dose dependent, sustained for testosterone through Day 85 at 200 mg/kg/dose
  circulating androgen levels: potent reductions in circulating androgen levels
[2]; two lower dose groups (20, 60 mg/kg) by Day 85
  Serum testosterone concentrations following repeat administration: returned to baseline
